Measured values taken from US9695438B2, “Wheat plants having increased resistance to imidazolinone herbicides” (University of Saskatchewan, priority 2001, dated 2017).

Key:
Nicotiana tabacum plants = details: plants homozygous for both mutations versus plants homozygous for each single mutation; cited from earlier work
[1] = system: wheat plants (Triticum aestivum L. cv CDC Teal and mutant lines); assay: Whole-plant reaction to imazamox spray (resistant / intermediate / susceptible rating); assay type: in vivo
Source text: Approximately 40,000 seeds of Triticum aestivum L. cv CDC Teal (Hughes and Hucl, 1993 Can. J. Plant Sci. 73:193-197) were mutagenized using modified procedures described by Washington and Sears (1970). Seeds were pre-soaked in distilled water for four hours, followed by treatment with 0.3% EMS for six hours. Seeds were rinsed continually with tap water for seven hours and allowed to dry for approximately four hours before being planted in the field. The M1 plants were selfed and the seed was harvested in bulk. Approximately 2×10^6 M2 plants were grown in the field the following year and were sprayed at the two leaf stage with imazamox at a rate of 40 g ai ha^−1 in a spray volume of 100 L ha^−1. Merge 0.05% (v/v) adjuvant was added to the spray solution. Six lines resistant to imazamox were selected and designated as lines 1A, 9A, 10A, 11A, 15A, and 16A. The M3 and M4 generations were grown in a walk-in growth chamber and plants resistant to imazamox were selected using rates of 20 g ai ha^−1. Resistant plants were selected in the M5 generation after application of 40 g ai ha^−1 in the field. M5 seed was homozygous for the trait, as progeny testing detected no segregation for resistance to imazamox.
To determine the genetic control of resistance to imazamox in the six wheat lines, reciprocal crosses between the six homozygous resistant M6 lines and CDC Teal (susceptible to imazamox) were made. Randomly selected F1 plants from each of the crosses were backcrossed to CDC Teal to form backcross (BC)F1 populations. To investigate allelism, all possible inter-crosses between the six mutants and SWP965001 (Grandin/3*Fidel—FS-4) were made. SWP965001 is a spring wheat line that is homozygous for the FS-4 allele. Parental genotypes were grown in a walk-in growth chamber with a 16 hour photoperiod and a 24° C. day and 16° C. night temperature regime. Spikes that were ¾ emerged from the boot were emasculated and then pollinated 2-3 days after the emasculation date. Randomly selected F2 plants from all segregating crosses were selfed to produce F2:3 families. Parental, F1, BCF1, F2 plants and F2:3 families were tested for reaction to imazamox. All experiments were conducted in a walk-in growth chamber with a 16 hour photoperiod and a 23° C. day and 16° C. night temperature regime. A completely random design was used for all experiments. In experiments involving F2:3 families, effort was taken to randomize both within and among families. The F1 and F2 populations were screened in the same experiment along with parental genotypes and CDC Teal as controls. Both the BCF1 and F2:3 populations were screened in two separate experiments along with appropriate parental genotypes as controls.
Herbicide treatments were applied to plants growing in 8×16 cell flats at the two leaf stage using a traveling cable sprayer calibrated to spray 100 L ha^−1. Imazamox was applied to plants at a rate of 20 g ai ha^−1 using an 8001 EVS nozzle at a pressure of 275 kPa. Merge surfactant (0.05% v/v) was added to the herbicide solution prior to application. Fifteen days after herbicide application, plants were rated based on parental reactions and were considered as resistant, intermediate, or susceptible. […] For Mendelian analysis of the segregating populations, plants were scored into resistant and susceptible categories and tested for goodness of fit to various 1 gene, 2 gene and 3 gene models using chi-square analysis. […]

[2] = system: wheat genotypes (BW755, Teal15A, 15A/11A); assay: Injury of wheat genotypes treated with 10× or 30× rate of imazamox; assay type: in vivo, Triticum aestivum
Source text: FIG. 7 is a table comparing injury sustained by three wheat genotypes when treated with either a 10× or 30× rate of imazamox. The 1× rate is 20 g/ha. BW755 contains the FS4 mutant gene. 15A/11A is a bulk of selfed progeny from the cross of Teal11A and Teal15A. The population was not yet homozygous at all three non-allelic loci.
The presence of two IMI nucleic acids in Teal 15A provides increased tolerance to imidazolinone herbicides compared to a line such as BW755 carrying only one IMI nucleic acid. This increased tolerance is reflected both in less injury at higher herbicide rates, but in having more uninhibited AHAS enzyme activity.
Combining three non-allelic genes each conferring tolerance to imidazolinone herbicides results in greater tolerance than with only two non-allelic genes (FIG. 7).

SMILES	resistance to foliar applications relative to single mutation plants (Nicotiana tabacum plants)	reaction to imazamox ([1]; CDC Teal (wild type parent))	survival after application of imazamox ([1]; F1 plants of reciprocal crosses between resistant lines and CDC Teal, 20 g ai ha^−1)	reaction to imazamox ([1]; F1 plants of resistant lines crossed with CDC Teal, except 15A×Teal, 20 g ai ha^−1)	reaction to imazamox ([1]; fourteen F1 plants from 15A×Teal cross, 20 g ai ha^−1)	reaction to imazamox ([1]; selected lines 1A, 9A, 10A, 11A, 15A, 16A, M2 plants in field, two leaf stage, 40 g ai ha^−1)	plant injury ([2]; 10× rate (200 g/ha), one gene plants (BW755, FS4))	plant injury ([2]; 10× rate (200 g/ha), two gene plants (Teal 15A))	plant injury ([2]; 30× rate (600 g/ha), homozygous population of Teal15A)	plant injury ([2]; 30× rate (600 g/ha), still-segregating selfed population of Teal15A crossed with Teal11A)
COc1nc(C)nc(NC(=O)NS(=O)(=O)c2ccccc2Cl)n1 [chlorsulfuron]	five-fold more resistant									
COCc1cnc(C2=NC(C)(C(C)C)C(=O)N2)c(C(=O)O)c1 (stereo not shown) [imazamox]		susceptible	survived	intermediate reaction	resistant	resistant	all treated one gene plants were injured	no two gene plants were injured	all plants of the homozygous population of Teal15A sustained injury	over half of plants sustained no injury
